# Molecular target: T1, recombinant human GR (Homo sapiens, UniProt P04150)
# T1 construct: purchased Panvera/Invitrogen P2812 (kit P2893)
# T1 sequence (P04150 1-777): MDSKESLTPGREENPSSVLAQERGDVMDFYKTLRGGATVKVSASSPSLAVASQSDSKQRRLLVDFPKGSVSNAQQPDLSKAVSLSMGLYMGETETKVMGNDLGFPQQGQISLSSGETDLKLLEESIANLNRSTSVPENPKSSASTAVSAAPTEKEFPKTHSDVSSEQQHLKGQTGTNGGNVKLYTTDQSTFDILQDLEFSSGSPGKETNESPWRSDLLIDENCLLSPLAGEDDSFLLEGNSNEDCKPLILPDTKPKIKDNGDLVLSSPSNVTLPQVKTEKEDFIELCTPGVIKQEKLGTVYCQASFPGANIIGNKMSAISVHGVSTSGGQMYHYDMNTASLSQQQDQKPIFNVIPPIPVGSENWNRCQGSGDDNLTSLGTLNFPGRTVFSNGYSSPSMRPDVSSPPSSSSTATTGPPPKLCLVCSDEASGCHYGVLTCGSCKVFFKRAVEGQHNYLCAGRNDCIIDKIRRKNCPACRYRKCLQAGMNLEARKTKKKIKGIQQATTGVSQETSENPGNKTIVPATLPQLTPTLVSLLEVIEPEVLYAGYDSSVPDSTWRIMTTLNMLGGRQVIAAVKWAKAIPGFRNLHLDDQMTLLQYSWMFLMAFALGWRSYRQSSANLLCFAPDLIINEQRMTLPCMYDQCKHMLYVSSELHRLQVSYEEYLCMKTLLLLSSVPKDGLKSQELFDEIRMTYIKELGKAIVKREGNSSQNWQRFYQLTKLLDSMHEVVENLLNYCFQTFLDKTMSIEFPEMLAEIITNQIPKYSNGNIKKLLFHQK
# Assay: Human Glucocorticoid Receptor (GR) Assay, fluorescence polarization (GRhuFL_FP_v2, GR-binders)
# Type: binding
# Experimental: Human Glucocorticoid Receptor (GR) Assay
# The assay is based on a commercial kit from Panvera/Invitrogen (Part number P2893). The assay technology is fluorescence polarization. […] The GR and Stabilizing Peptide reagents are stored at −70° C. while the GS Red is stored at −20° C. Also included in the kit are 1M DTT (Panvera, Part number P2325, stored at −20° C.) and GR Screening buffer 10× (Panvera, Part number P2814, stored at −70° C. initially but once thawed stored at room temperature). Avoid repeated freeze/thaws for all reagents. The GR Screening buffer 10× comprises 100 mM potassium phosphate, 200 mM sodium molybdate, 1 mM EDTA and 20% DMSO.
# 0% control was 100% DMSO and 100% control was 10 μM Dexamethasone. Background solution (8 μL; assay buffer 10×, Stabilizing Peptide, DTT and ice cold MQ water) was added to the background wells. GS Red solution (7 μL; assay buffer 10×, Stabilizing Peptide, DTT, GS Red and ice cold water) was added to all wells except background wells. GR solution (7 μL; assay buffer 10×, Stabilizing Peptide, DTT, GR and ice cold water) was added to all wells. The plate was sealed and incubated in a dark at room temperature for 2 hours.
row,IC50 [nM],SMILES
1,3.8,"Cc1cccc(-n2ncc3c(NC[C@H](C)NS(=O)(=O)c4c(C)cc(C)cc4C)cccc32)c1 [Example 9, 2,4,6-Trimethyl-N-((1S)-1-methyl-2-{[1-(3-methylphenyl)-1H-indazol-4-yl]amino}ethyl)benzenesulfonamide]"
2,4,"Cc1cc(C)c(S(=O)(=O)N[C@@H](C)CNc2cccc3c2cnn3-c2ccc(F)c(C)c2)c(C)c1 [Example 17, N-((1S)-2-{[1-(4-Fluoro-3-methylphenyl)-1H-indazol-4-yl]amino}-1-methylethyl)-2,4,6-trimethylbenzenesulfonamide]"
3,3.5,"Cc1cc(C)c(S(=O)(=O)N[C@@H](C)CNc2cccc3c2cnn3-c2ccc(Cl)cc2)c(C)c1 [Example 22, N-((1S)-2-{[1-(4-Chlorophenyl)-1H-indazol-4-yl]amino}-1-methylethyl)-2,4,6-trimethylbenzenesulfonamide]"
4,5300,"Cc1cc(C)c(S(=O)(=O)N[C@@H](C)CNc2ncnc3c2cnn3-c2ccccc2)c(C)c1 [Example 34, 2,4,6-Trimethyl-N-{(1S)-1-methyl-2-[(1-phenyl-1H-pyrazolo[3,4-d]pyrimidin-4-yl)amino]ethyl}benzenesulfonamide]"
5,1.5,"Cc1n[nH]c(C)c1S(=O)(=O)N[C@@H](C)COc1cccc2c1cnn2-c1ccc(F)cc1 [Example 41, N-((1S)-2-{[1-(4-Fluorophenyl)-1H-indazol-4-yl]oxy}-1-methylethyl)-3,5-dimethyl-1H-pyrazole-4-sulfonamide]"
6,6.9,"COc1cccc(-n2ncc3c(NC[C@H](C)NS(=O)(=O)c4c(C)cc(C)cc4C)cccc32)c1 [Example 8, N-((1S)-2-{[1-(3-Methoxyphenyl)-1H-indazol-4-yl]amino}-1-methylethyl)-2,4,6-trimethylbenzenesulfonamide]"
7,6.4,"Cc1cc(C)c(S(=O)(=O)NC[C@H](C)Nc2cccc3c2cnn3-c2ccc(F)cc2)c(C)c1 [Example 40, N-((2S)-2-{[1-(4-Fluorophenol)-1H-indazol-4-yl]amino}propyl)-2,4,6-trimethylbenzenesulfonamide]"
8,5.4,"COc1ccc(-n2ncc3c(NC[C@H](C)NS(=O)(=O)c4c(C)cc(C)cc4C)cccc32)cc1 [Example 5, N-((1S)-2-{[1-(4-Methoxyphenyl)-1H-indazol-4-yl]amino}-1-methylethyl)-2,4,6-trimethylbenzenesulfonamide]"
9,5.6,"Cc1cc(C)c(S(=O)(=O)N[C@@H](C)CNc2cccc3c2cnn3-c2cccnc2)c(C)c1 [Example 16, 2,4,6-Trimethyl-N-{(1S)-1-methyl-2-[(1-pyridin-3-yl-1H-indazol-4-yl)amino]ethyl}benzenesulfonamide]"
10,2.7,"COc1ccc(-n2ncc3c(NC[C@H](C)NS(=O)(=O)c4c(C)cc(C)cc4C)cccc32)cc1F [Example 21, N-((1S)-2-{[1-(3-Fluoro-4-methoxy-phenyl)-1H-indazol-4-yl]amino}-1-methylethyl)-2,4,6-trimethylbenzenesulfonamide]"
11,7.3,"Cc1cc(C)c(S(=O)(=O)N[C@@H](C)CNc2c(C)ccc3c2cnn3-c2ccc(F)cc2)c(C)c1 [Example 23, N-((1S)-2-{[1-(4-Fluorophenyl)-5-methyl-1H-indazol-4-yl]amino}-1-methylethyl)-2,4,6-trimethylbenzenesulfonamide]"
12,4,Cc1cc(C)c(S(=O)(=O)NC(COc2cccc3c2cnn3-c2ccc(F)cc2)C(F)(F)F)c(C)c1 (stereo not drawn) [Example 4]
13,23,"COc1ncc(-n2ncc3c(NC[C@H](C)NS(=O)(=O)c4c(C)nn(C5CCCC5)c4C)cccc32)cn1 [Example 28, 1-Cyclopentyl-N-((1S)-2-{[1-(2-methoxypyrimidin-5-yl)-1H-indazol-4-yl]amino}-1-methylethyl)-3,5-dimethyl-1H-pyrazole-4-sulfonamide]"
14,260,"Cc1cc(C)c(S(=O)(=O)N[C@@H](C)CNc2cccc3c2cnn3-c2cccc(C(F)(F)F)c2)c(C)c1 [Example 19, 2,4,6-Trimethyl-N-[(1S)-1-methyl-2-({1-[3-(trifluoromethyl)phenyl]-1H-indazol-4-yl}amino)ethyl]benzene sulfonamide]"
15,24,"Cc1cc(C)c(S(=O)(=O)NCC(C)(C)Nc2cccc3c2cnn3-c2ccc(F)cc2)c(C)c1 [Example 55, N-[2-[[1-(4-Fluorophenyl)indazol-4-yl]amino]-2-methylpropyl]-2,4,6-trimethyl-benzenesulfonamide]"
16,3,"Cc1nn(C2CCCC2)c(C)c1S(=O)(=O)N[C@@H](C)CNc1cccc2c1cnn2-c1ccc(F)nc1 [Example 26, 1-Cyclopentyl-N-((1S)-2-{[1-(6-fluoropyridin-3-yl)-1H-indazol-4-yl]amino}-1-methylethyl)-3,5-dimethyl-1H-pyrazole-4-sulfonamide]"
17,12,"Cc1nn(C2CCCC2)c(C)c1S(=O)(=O)N[C@@H](C)CNc1cccc2c1cnn2-c1ccc(OC(F)(F)F)cc1 [Example 27, 1-Cyclopentyl-3,5-dimethyl-N-[(1S)-1-methyl-2-({1-[4-(trifluoromethoxy)phenyl]-1H-indazol-4-yl}amino)ethyl]-1H-pyrazole-4-sulfonamide]"
18,7.1,"Cc1cc(C)c(S(=O)(=O)N[C@@H](C)CNc2cccc3c2cnn3-c2ccnc(F)c2)c(C)c1 [Example 10, N-((1S)-2-{[1-(2-Fluoropyridin-4-yl)-1H-indazol-4-yl]amino}-1-methylethyl)-2,4,6-trimethylbenzenesulfonamide]"
19,18,"CCC(CC)n1nc(C)c(S(=O)(=O)N[C@@H](C)COc2cccc3c2cnn3-c2ccc(F)cc2)c1C [Example 46, 1-(1-Ethylpropyl)-N-((1S)-2-{[1-(4-fluorophenyl)-1H-indazol-4-yl]oxy}-1-methylethyl)-3,5-dimethyl-1H-pyrazole-4-sulfonamide]"
20,6.6,"COc1ccc(-n2ncc3c(NC[C@H](C)NS(=O)(=O)c4c(C)cc(C)cc4C)cccc32)cn1 [Example 11, N-((1S)-2-{[1-(6-Methoxypyridin-3-yl)-1H-indazol-4-yl]amino}-1-methylethyl)-2,4,6-trimethylbenzenesulfonamide]"
21,54,"Cc1nn(C2CCCC2)c(C)c1S(=O)(=O)N[C@@H](C)COc1cccc2c1cnn2-c1cccnc1 [Example 49, 1-Cyclopentyl-3,5-dimethyl-N-{(1S)-1-methyl-2-[(1-pyridin-3-yl-1H-indazol-4-yl)oxy]ethyl}-1H-pyrazole-4-sulfonamide]"
22,4.7,"Cc1nn(C2CCCC2)c(C)c1S(=O)(=O)N[C@@H](C)CNc1cccc2c1cnn2-c1ccc(C#N)cc1 [Example 30, N-((1S)-2-{[1-(4-Cyanophenyl)-1H-indazol-4-yl]amino}-1-methylethyl)-1-cyclopentyl-3,5-dimethyl-1H-pyrazole-4-sulfonamide]"
23,7,"Cc1cc(C)c(S(=O)(=O)N[C@@H](C)CNc2cccc3c2cnn3C2CCCC2)c(C)c1 [Example 50, N-{(1S)-2-[(1-Cyclopentyl-1H-indazol-4-yl)amino]-1-methylethyl}-2,4,6-trimethylbenzene sulfonamide]"
24,44,"COc1cncc(-n2ncc3c(NC[C@H](C)NS(=O)(=O)c4c(C)nn(C5CCCC5)c4C)cccc32)c1 [Example 31, 1-Cyclopentyl-N-((1S)-2-{[1-(5-methoxypyridin-3-yl)-1H-indazol-4-yl]amino}-1-methylethyl)-3,5-dimethyl-1H-pyrazole-4-sulfonamide]"

# From US20090124607A1, “Novel Bicyclic Sulfonamides for Use as Glucocorticoid Receptor Modulators in the Treatment of Inflammatory Diseases” (priority 2005, published 2009)
